“Also recorded” adds a separate entry of the source.
How the values were obtained:
Tau204-2163P = target: T1, Tau204-2163P (Homo sapiens, UniProt P10636); test: Fluorescence titration of BODIPY-Zn(Dpa) with Tau204-2163P; type: binding
T1 construct: made in house; host or cells: chemical solid-phase synthesis
Experimental: (§1) The phosphorylated peptide-recognizing ability of BODIPY-Zn(Dpa) compound 9 (hereinafter referred to as BODIPY-Zn(Dpa)) was evaluated by measuring fluorescence spectra. Measurement was performed under the following conditions: [BODIPY-Zn(Dpa)]=5 μM; pH 7.2; 50 mM HEPES buffer; and 25° C. The excitation wavelength was λex=530 nm. […] When Tau2P was excessively added, this change reached saturation. The […] calculated from the fluorescence changes was 2.75×10^5 M^−1.
(§2) Fluorescence changes when peptide Tau204-2163P or Tau204-2162P used in Example 1 was added dropwise were measured to calculate the affinity (association constant).

[1] = tested on: hippocampal tissues from the normal human brain; test: Fluorescence staining of normal human brain hippocampal tissue sections
Experimental: To investigate whether an excessively phosphorylated tau protein in brain tissues can be detected, a fluorescence staining experiment of hippocampal tissue sections from a human brain affected by Alzheimer (AD) and a normal brain was performed using BODIPY-Zn(Dpa). Specifically, hippocampal tissue sections from the AD-affected human brain or the normal brain were deparaffinized (xylene immersion for 5 min was repeated three times, then each section was immersed in 100%, 90%, 80% and 70% aqueous ethanol solution in stages [for 2 min each], and finally washed twice with water for 5 min), lipofuscin was removed (washed twice with PBS for 2 min, immersed in 0.25% by weight permanganate potassium/PBS for 30 min, washed twice with PBS for 2 min, immersed in 1% by weight oxalic acid and 1% by weight potassium pyrosulfate/PBS for 6 min and finally washed twice with PBS for 2 min), trypsin treatment was performed (washed twice with PBS-Tween at room temperature for 2 min and 0.05% Trypsin/PBS at 37° C. for 15 min), and finally washed twice with PBS-Tween at room temperature for 5 min, and costaining was performed using an antibody and BODIPY-Zn(Dpa). First, blocking was performed with 10% goat serum (37° C., 30 min) to remove 10% goat serum, then a primary antibody was added, and a reaction was performed at 4° C. for 17 to 19 h. […]

Tau2P = target: T2, Tau2P (Homo sapiens, UniProt P10636); test: Fluorescence titration of BODIPY-Zn(Dpa) with Tau2P; type: binding; details: Tau 2P (i, i+4)
T2 construct: made in house; host or cells: chemical solid-phase synthesis
Experimental: as §1

[2] = target: T3, phosphorylated tau aggregate (p-Tau) (Homo sapiens, UniProt P10636); test: Fluorescence staining of phosphorylated tau aggregate prepared in vitro; type: binding
T3 construct: made in house; host or cells: Escherichia coli
T3 sequence (P10636 1-441 isoform P10636-8): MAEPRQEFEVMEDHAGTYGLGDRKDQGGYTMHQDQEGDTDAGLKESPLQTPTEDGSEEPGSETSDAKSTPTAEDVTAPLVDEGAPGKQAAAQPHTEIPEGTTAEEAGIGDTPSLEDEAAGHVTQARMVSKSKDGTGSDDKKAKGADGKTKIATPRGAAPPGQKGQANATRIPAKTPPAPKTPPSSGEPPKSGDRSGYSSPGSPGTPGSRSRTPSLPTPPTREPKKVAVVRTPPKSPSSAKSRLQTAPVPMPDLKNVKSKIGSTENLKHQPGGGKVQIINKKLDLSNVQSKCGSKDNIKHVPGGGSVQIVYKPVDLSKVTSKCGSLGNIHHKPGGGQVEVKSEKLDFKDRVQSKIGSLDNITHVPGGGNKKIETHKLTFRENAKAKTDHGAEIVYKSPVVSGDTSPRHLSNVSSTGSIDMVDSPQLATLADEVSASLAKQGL
Experimental: (§3) Tau proteins (8 μM) expressed by Escherichia coli and heparin (1.6 μM) were incubated at 37° C. for 20 days to prepare a tau aggregate. A phosphorylated tau aggregate was similarly prepared using tau proteins phosphorylated with GSK-3β in vitro. The results of Pro-Q diamond staining after performing SDS-PAGE confirmed that the in-vitro phosphorylation was performed with a phosphorylation degree of 6 mol P/mol Tau.
(§4) 10 μM BODIPY-Zn(Dpa) or 10 μM thioflavine T (may be referred to as ThT) were added to the prepared tau aggregate or phosphorylated tau aggregate. After the addition, the mixture was washed twice with 0.5 mM Zn(NO3)2, and a suspension (0.5 μL) of the stained phosphorylated tau aggregate was air-dried on a cover glass and observed under a confocal laser scanning microscope (OLYMPUS FV-1000, Obj. lens 100×).

[3] = target: T4, nonphosphorylated Tau aggregate (n-Tau) (Homo sapiens, UniProt P10636); test: Fluorescence staining of nonphosphorylated tau aggregate prepared in vitro; type: binding; details: 10 μM dye
T4 construct: made in house; host or cells: Escherichia coli
T4 sequence (P10636 1-441 isoform P10636-8): as above
Experimental: as §3, §4

tau aggregate = target: T5, tau aggregate (Homo sapiens, UniProt P10636); test: Fluorescence titration of tau aggregate against 100 nM BODIPY-Zn(Dpa); type: binding; details: tau 0 to 320 nM against 100 nM BODIPY-Zn(Dpa), 37° C., 60 min
T5 construct: made in house; host or cells: Escherichia coli
T5 sequence (P10636 1-441 isoform P10636-8): as above
Experimental: The ranges of concentrations at which a phosphorylated tau aggregate, a tau aggregate, and an amyloid β aggregate interact with BODIPY-Zn(Dpa) were examined by titration. Titration was performed in the range of tau concentrations of 0 to 320 nM (0 to 14 μg/mL) against 100 nM of BODIPY-Zn(Dpa). Using a solvent obtained by adding 10% DMSO and 10 μM Zn(NO3)2 to HBS (10 mM HEPES (pH 7.4), 150 mM NaCl), the solution was incubated at 37° C. for 60 min, and fluorescence was measured (excitation wavelength, 490 nm; fluorescence wavelength, 545 nm).

GSK-3β = test: Kinase assay using BODIPY-Zn(Dpa), Tau1P and GSK-3β; type: biochemical
Experimental: A kinase assay was performed using Tau1P, a phosphorylated partial sequence peptide of a tau protein, BODIPY-Zn(Dpa) and GSK-3β, which phosphorylates the 231st threonine. The experiment conditions were as follows: 20 μM Tau1P, 20 μM BODIPY-Zn(Dpa), 100 μM ATP, 2 μg of BSA, 50 mM HEPES, 10 mM MgCl2, 10 mM DTT, 2 μM EDTA; pH 7.2; 30° C.; and an excitation wavelength of 540 nm. […] This is a result of phosphorylation of the 231st threonine in Tau1P by GSK-3β, recognition of the phosphorylation by BODIPY-Zn(Dpa) and the resulting interaction.

Tau204-2162P = target: T6, Tau204-2162P (Homo sapiens, UniProt P10636); test: Fluorescence titration of BODIPY-Zn(Dpa) with Tau204-2162P (i, i+6); type: binding
T6 construct: made in house; host or cells: chemical solid-phase synthesis
Experimental: as §1, §2

CC1=C(c2ccc(CN(C)Cc3ccccn3)nc2)C(C)=[N+]2C1=C(c1cc(OCCOCCOCCO)cc(OCCOCCOCCO)c1)c1c(C)c(-c3ccc(CN(C)Cc4ccccn4)nc3)c(C)n1[B-]2(F)F.O=[N+]([O-])[O-].O=[N+]([O-])[O-].O=[N+]([O-])[O-].O=[N+]([O-])[O-].[Zn+2].[Zn+2] [BODIPY-Zn(Dpa)]
Association constant (Tau204-2163P; Tau204-216 3P (i, i+4, i+6)): 230000 M⁻¹
I/I0 - 1 at saturation (Tau204-2163P; Tau204-216 3P (i, i+4, i+6)): 0.25
detection of peptide by fluorescence change (Tau204-2163P; Tau204-2163P): could be detected
fluorescence in tissue [1]: is not observed
I/I0 - 1 at saturation (Tau2P; BODIPY-Zn(Dpa) 5 μM, pH 7.2, 25° C.): 0.55
Association constant (Tau2P; calculated from fluorescence changes): 275000 M⁻¹
staining of aggregate ([2]; p-Tau in the presence of pyrophosphoric acid (PPi)): did not stain the aggregate
staining of aggregate ([2]; p-Tau, 10 μM dye): could bind to and stain the p-Tau aggregate
staining of aggregate [3]: is not observed
concentration range of interaction (tau aggregate): in the range of nM
fluorescence intensity change with time (GSK-3β; 20 μM Tau1P, 20 μM BODIPY-Zn(Dpa), 100 μM ATP, 30° C.): increase in fluorescence intensity with time was confirmed
kinase concentration dependence of fluorescence intensity (GSK-3β; GSK-3β concentration varied): concentration-dependence of GSK-3β was observed
I/I0 - 1 at saturation (Tau204-2162P; Tau204-216 2P (i, i+6)): No change
detection of / interaction with peptide by fluorescence change (Tau204-2162P; Tau204-2162P (i, i+6)): could not be detected; also recorded: did not interact

From patent US8093060B2, “Multisite phosphorylated peptide (protein) recognizing compound and detection method, imaging method, alzheimer's disease diagnosing method and reagent kit using the same” (Canon Kabushiki Kaisha, priority 2008, dated 2012)
